Results taken from ChEMBL document CHEMBL1127656, “Articulating a pharmacophore driven synthetic strategy: Discovery of a potent substance P antagonist” (Bioorg Med Chem Lett, 1994).
pKi: −log10 of the molar value.

Target: Substance-P receptor (Homo sapiens, UniProt P25103)
Assay: In vitro binding affinity towards human NK-1 receptor in IM-9 cells using [3H]SP of substance P antagonist
Type: cell-based

Chain of Substance-P receptor (P25103 whole entry): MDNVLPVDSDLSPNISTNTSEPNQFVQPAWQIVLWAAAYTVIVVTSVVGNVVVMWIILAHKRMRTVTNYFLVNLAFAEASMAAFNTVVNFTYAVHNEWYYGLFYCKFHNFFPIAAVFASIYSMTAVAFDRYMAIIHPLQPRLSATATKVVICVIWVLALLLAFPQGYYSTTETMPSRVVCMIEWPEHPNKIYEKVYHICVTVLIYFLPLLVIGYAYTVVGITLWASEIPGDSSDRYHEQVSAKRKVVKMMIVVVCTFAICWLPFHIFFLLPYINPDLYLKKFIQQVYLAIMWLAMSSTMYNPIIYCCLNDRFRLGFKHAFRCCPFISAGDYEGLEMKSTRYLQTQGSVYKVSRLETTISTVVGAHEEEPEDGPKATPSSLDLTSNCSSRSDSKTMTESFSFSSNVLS

pKi: 8.62
Compound: COc1ccccc1CN[C@H]1[C@@H]2CCC[C@@H]2N[C@H]1c1ccccc1 (racemic)
